Source: US20040121307A1, “Early detection of cellular differentiation using optophoresis” (Genoptix, Inc, priority 2002, published 2004)

Experiments:
Assay type in all cases: cell-based
U937 cells [1] = assay: Experiment 1: time course dependence of PMA activation, escape velocity
Method: The objective of this experiment is to compare the escape velocities of U937 cells that have been treated with the phorbol ester, phorbol 12 myristate 13-acetate (PMA), to the escape velocity of untreated U937 cells. PMA activates the Protein Kinase C pathway and may cause the cells to go into rapid cell differentiation, which may be indicated by a shift in escape velocity. […] At the end of the activation period, the cells were centrifuged for 4 minutes at 10,000 rpm. The supernatant was then removed and the pellet resuspended in 1 ml PBS/1% BSA buffer. The cells were then centrifuged again and resuspended in buffer. The escape velocity and the cell size of cells from each tube were then calculated.
The time dependent effect of PMA was clearly present as can been seen in the shift of escape velocity to higher speeds over greater time periods.

HL-60 cells = assay: Cellular differentiation of HL-60, fast scan time course; settings: 400 ng/ml PMA, fast scan
Method: Fast scan analysis was also performed on HL-60 cells that were treated with PMA and DMSO. A time course evaluation of PMA treated HL-60 cells was performed with fast scan data taken at 16 hours, 24 hours, 40 hours, and 72 hours post-treatment with 400 ng/ml PMA. A control sample of HL-60 cells was also tested using EtOH as the vehicle for purposes of comparing the differentiated cells with the undifferentiated HL-60 cells. The PMA-treated and control cells were harvested and trypsinized. The samples were then resuspended in PBS/1% BSA. A set of samples was also obtained and left as pellets at 4° C. for subsequent FACS analysis.
A time course evaluation of DMSO treated HL-60 cells was performed with fast scan data taken at 16 hours, 24 hours, 40 hours, and 70 hours post-treatment with 1% DMSO. A control sample of HL-60 cells was also tested for purposes of comparing the differentiated cells with the undifferentiated HL-60 cells. The DMSO-treated and control cells were then harvested and resuspended in PBS/1% BSA. A set of samples was also obtained and left as pellets at 4° C. for subsequent FACS analysis.

U937 cells [2] = assay: Experiment 3: PMA inhibition by bisindolymaleimide, escape velocity; settings: 10 ng/ml PMA only, four hours
From the text: The objective of this experiment was to test the effect of bisindolymaleimide on cells exposed to PMA. Bisindolymaleimide is a Protein Kinase C inhibitor and should block the effect of PMA on U937 cells and their escape velocities. As shown in this and prior experiments, exposure of U937 cells to PMA results in an increase in the escape velocity of the cells. Therefore, it is anticipated that addition of bisindolymaleimide will reduce or eliminate the increase in escape velocity caused by PMA. This has in fact been observed in the data shown below.
Bisindolymaleimide was tested at two concentrations: 200 ng/ml and 50 ng/ml. Samples not treated with bisindolymaleimide received an equivalent amount of the carrier, MeOH, as a control. […] The concentration of PMA tested was 10 ng/ml. Samples not receiving PMA received DMSO.
Once the flasks were prepared, they were incubated at 37° C. 5% CO2 for four hours. At the four hour timepoint, 300 μl of cells were removed from each flask and pelleted at 5000 rpm for 5 minutes. The cells were then resuspended in 6 ml PBS/1% BSA and 60 μl trypan blue.

U937 cells [3] = assay: Separation of drug treated and untreated leukemia cells, escape velocity; settings: PMA 5 ug/mL, 6 hours
Method: PMA was dissolved in ethanol at a concentration of 5 mg/mL. 3 mls of U937 cells grown in RPMI 1640 media with supplements were removed from the culture flask and 1 ml was placed into each of three eppendorf tubes. Cells from the first tube were pelleted for 4 minutes at 10,000 rpm and resuspended in 250 uL PBS/1% BSA buffer for escape velocity measurements. PMA was added to the remaining two tubes of U937 cells to a final concentration of 5 ug/mL. These tubes were vortexed and placed in a 37° C. water bath for either one hour or six hours. At the end of the time point, the tube was removed, cells were pelleted and then resuspended as described above and escape velocity measurements taken.

CCCCCCCCCCCCCC(=O)O[C@@H]1[C@@H](C)[C@@]2(O)[C@@H](C=C(CO)C[C@]3(O)C(=O)C(C)=C[C@@H]23)[C@@H]2C(C)(C)[C@]12OC(C)=O [PMA, phorbol 12 myristate 13-acetate]
distribution of escape velocities (U937 cells [1]; 0.01 μg/ml PMA, 6 and 9 hours post treatment (FIG. 31)): clear trend toward higher escape velocities over time
escape velocity, Average (U937 cells [1]; 1 hour of PMA activation): 15.3 μm/sec
escape velocity, Average (U937 cells [1]; 6 hours of PMA activation): 28.0 μm/sec
time after treatment at which Optophoretic analysis detected cellular differentiation into monocytes/macrophages (HL-60 cells): ≤ 16 h
average escape velocity (U937 cells [2]): 15.4 μm/sec
escape velocity as compared to the untreated cells (U937 cells [3]): significantly higher escape velocity
